Literature values, collected in publication PMC7904743, “WIDOCK: a reactive docking protocol for virtual screening of covalent inhibitors” (Journal of Computer-Aided Molecular Design, 2021).
Where two headings read alike, the source gives them in different places.

How the values were obtained:
OTUB2 = settings: experimental actives if % labeling higher than 50%; cited from earlier work
NUDT7 = settings: protein labeling at 200 μM; experimental actives if % labeling higher than 50%; cited from earlier work
[1] = thiol reactivity, cited from earlier work
[2] = natural log of average rate constant k
[3] = natural logarithm of average rate constant

Row | SMILES | OTUB2 % labeling (OTUB2) | NUDT7 % labeling (NUDT7) | ln(avg k) [1, 2] | ln(avg k) [1, 3]
1 | O=C(CCl)N1CCN(S(=O)(=O)c2ccc3c(c2)CCC3)CC1 [PCM-0102193, O=C(CCl)N1CCN(S(=O)(=O)c2ccc3c(c2)CCC3)CC1] | 0% | 0% | -15.169 | -15.169
2 | Cc1cc(NC(=O)CCl)on1 [PCM-0102197, Cc1cc(NC(=O)CCl)on1] | 0% | 0% | -16.303 | -16.303
3 | O=C(CCl)Nc1cccc(Cl)c1 [PCM-0102198, O=C(CCl)Nc1cccc(Cl)c1] | 37% | 28% | -16.004 | -16.004
4 | O=C(CCl)N1CCN(S(=O)(=O)c2c(F)cccc2F)CC1 [PCM-0102201, O=C(CCl)N1CCN(S(=O)(=O)c2c(F)cccc2F)CC1] | 0% | 0% | -15.250 | -15.250
5 | Cc1sc(NC(=O)CCl)c(C#N)c1C [PCM-0102202, Cc1sc(NC(=O)CCl)c(C#N)c1C] | 0% | 0% | -15.804 | -15.804
6 | NC(=O)C1CCCCN1C(=O)CCl (stereo not drawn) [PCM-0102203, NC(=O)C1CCCCN1C(=O)CCl] | 0% | 0% | -15.988 | -15.988
7 | COC(=O)c1ccc(NC(=O)CCl)cc1 [PCM-0102204, COC(=O)c1ccc(NC(=O)CCl)cc1] | 0% | 0% | -15.628 | -15.628
8 | CC1Cc2cc(S(N)(=O)=O)ccc2N1C(=O)CCl (stereo not drawn) [PCM-0102207, CC1Cc2cc(S(N)(=O)=O)ccc2N1C(=O)CCl] | 0% | 7% | -15.427 | -15.427
9 | Cc1ccc(NC(=O)CCl)cc1Cl [PCM-0102208, Cc1ccc(NC(=O)CCl)cc1Cl] | 46% | 19% | -15.859 | -15.859
10 | O=C(CCl)Nc1cc2c(cc1Cl)OCO2 [PCM-0102209, O=C(CCl)Nc1cc2c(cc1Cl)OCO2] | 27% | 13% | -16.385 | -16.385
11 | COc1cc(Cl)c(C)cc1NC(=O)CCl [PCM-0102210, COc1cc(Cl)c(C)cc1NC(=O)CCl] | 25% | 0% | -15.971 | -15.971
12 | Cc1nnc(NC(=O)CCl)s1 [PCM-0102211, Cc1nnc(NC(=O)CCl)s1] | 0% | 0% | -15.999 | -15.999
13 | CC(NC(=O)CCl)c1ccc(Cl)cc1Cl (stereo not drawn) [PCM-0102212, CC(NC(=O)CCl)c1ccc(Cl)cc1Cl] | 18% | 54% | -16.295 | -16.295
14 | O=C(CCl)N1CCN(c2ccccn2)CC1 [PCM-0102213, O=C(CCl)N1CCN(c2ccccn2)CC1] | 0% | 0% | -15.928 | -15.928
15 | Cc1cc(Cl)ccc1NC(=O)CCl [PCM-0102214, Cc1cc(Cl)ccc1NC(=O)CCl] | 39% | 8% | -16.385 | -16.385
16 | CC1CCN(C(=O)CCl)c2ccccc2S1 (stereo not drawn) [PCM-0102216, CC1CCN(C(=O)CCl)c2ccccc2S1] | 0% | 32% | -16.224 | -16.224
17 | O=C(CCl)Nc1ccc(F)c(Cl)c1 [PCM-0102217, O=C(CCl)Nc1ccc(F)c(Cl)c1] | 14% | 0% | -15.473 | -15.473
18 | O=C(Nc1ccccc1)C1CCN(C(=O)CCl)CC1 [PCM-0102219, O=C(Nc1ccccc1)C1CCN(C(=O)CCl)CC1] | 0% | 0% | -15.089 | -15.089
19 | CS(=O)(=O)c1ccc(Cl)c(NC(=O)CCl)c1 [PCM-0102220, CS(=O)(=O)c1ccc(Cl)c(NC(=O)CCl)c1] | 0% | 5% | -15.663 | -15.663
20 | CNC(=O)C1CN(C(=O)CCl)c2ccccc2O1 (stereo not drawn) [PCM-0102221, CNC(=O)C1CN(C(=O)CCl)c2ccccc2O1] | 15% | 0% | -15.966 | -15.966
21 | N#CC(c1cccs1)N1CCN(C(=O)CCl)CC1 (stereo not drawn) [PCM-0102223, N#CC(c1cccs1)N1CCN(C(=O)CCl)CC1] | 0% | 0% | -15.143 | -15.143

Row | SMILES | OTUB2 % labeling (OTUB2) | NUDT7 % labeling (NUDT7) | ln(avg k) [1, 2] | ln(avg k) [1, 3]
22 | Cc1ccc(-n2nc(C)cc2NC(=O)CCl)cc1 [PCM-0102224, Cc1ccc(-n2nc(C)cc2NC(=O)CCl)cc1] | 35% | 0% | -16.116 | -16.116
23 | CC(NC(=O)CCl)c1ccc(F)cc1 (stereo not drawn) [PCM-0102228, CC(NC(=O)CCl)c1ccc(F)cc1] | 20% | 7% | -15.820 | -15.820
24 | CC1(NC(=O)CCl)CCS(=O)(=O)C1 (stereo not drawn) [PCM-0102230, CC1(NC(=O)CCl)CCS(=O)(=O)C1] | 0% | 0% | -16.090 | -16.090
25 | CCc1nc(NC(=O)CCl)sc1C [PCM-0102231, CCc1nc(NC(=O)CCl)sc1C] | 0% | 33% | -15.238 | -15.238
26 | O=C(CCl)Nc1ccccc1[N+](=O)[O-] [PCM-0102232, O=C(CCl)Nc1ccccc1[N+](=O)[O-]] | 20% | 24% | -15.562 | -15.562
27 | O=C(CCl)Nc1nc(-c2c[nH]c3ccccc23)cs1 [PCM-0102233, O=C(CCl)Nc1nc(-c2c[nH]c3ccccc23)cs1] | 25% | 26% | -15.707 | -15.707
28 | COc1ccccc1NC(=O)CCl [PCM-0102236, COc1ccccc1NC(=O)CCl] | 28% | 0% | -16.359 | -16.359
29 | O=C(CCl)N1CCN(S(=O)(=O)c2ccc(F)cc2)CC1 [PCM-0102237, O=C(CCl)N1CCN(S(=O)(=O)c2ccc(F)cc2)CC1] | 0% | 6% | -16.014 | -16.014
30 | O=C(CCl)Nc1ccc(F)c([N+](=O)[O-])c1 [PCM-0102238, O=C(CCl)Nc1ccc(F)c([N+](=O)[O-])c1] | 32% | 23% | -15.369 | -15.369
31 | O=C(CCl)N1CCN(c2cccc(C(F)(F)F)c2)CC1 [PCM-0102239, O=C(CCl)N1CCN(c2cccc(C(F)(F)F)c2)CC1] | 0% | 8% | -15.673 | -15.673
32 | O=C(CCl)N1CCN(S(=O)(=O)c2cccs2)CC1 [PCM-0102241, O=C(CCl)N1CCN(S(=O)(=O)c2cccs2)CC1] | 0% | 12% | -15.262 | -15.262
33 | O=C(CCl)Nc1nccs1 [PCM-0102242, O=C(CCl)Nc1nccs1] | 0% | 0% | -16.213 | -16.213
34 | O=C(CCl)N1CCN(Cc2cccs2)CC1 [PCM-0102243, O=C(CCl)N1CCN(Cc2cccs2)CC1] | 0% | 8% | -15.851 | -15.851
35 | NC(=O)C1CN(C(=O)CCl)c2ccccc2O1 (stereo not drawn) [PCM-0102245, NC(=O)C1CN(C(=O)CCl)c2ccccc2O1] | 15% | 12% | -15.513 | -15.513
36 | O=C(CCl)Nc1cc(F)ccc1C(=O)O [PCM-0102247, O=C(CCl)Nc1cc(F)ccc1C(=O)O] | 0% | 0% | -16.882 | -16.882
37 | Cc1ccc(C)c(-n2nc(C)cc2NC(=O)CCl)c1 [PCM-0102249, Cc1ccc(C)c(-n2nc(C)cc2NC(=O)CCl)c1] | 43% | 0% | -15.689 | -15.689
38 | O=C(CCl)NC1CCCC1 [PCM-0102250, O=C(CCl)NC1CCCC1] | 0% | 0% | -16.419 | -16.419
39 | CC1CCC(C#N)(N(C)C(=O)CCl)CC1 (stereo not drawn) [PCM-0102251, CC1CCC(C#N)(N(C)C(=O)CCl)CC1] | 0% | 5% | -15.448 | -15.448
40 | N#Cc1oc2ccccc2c1NC(=O)CCl [PCM-0102252, N#Cc1oc2ccccc2c1NC(=O)CCl] | 86% | 37% | -15.605 | -15.605
41 | COc1ccc(N2CCN(C(=O)CCl)CC2)cc1 [PCM-0102254, COc1ccc(N2CCN(C(=O)CCl)CC2)cc1] | 0% | 0% | -15.625 | -15.625
42 | CCOC(=O)N1CCC(NC(=O)CCl)CC1 [PCM-0102255, CCOC(=O)N1CCC(NC(=O)CCl)CC1] | 24% | 0% | -15.985 | -15.985
